From patent publication US8012983B2, “Substituted triazolopyrazines useful for the treatment of degenerative and inflammatory diseases” (Galapagos NV, priority 2008, dated 2011)

System: MMP1 expression by activated synovial fibroblasts (RASFs)
Assay: 'MMP assay': complex trigger-induced MMP1 expression by synovial fibroblasts (MMP1 ELISA)
Format: cell-based
Conditions: Homo sapiens, Fibroblast; RASFs, complex trigger, 48 hrs; read-out: MMP1 IC50
Method in brief: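 Synovial fibroblasts seeded at 3,000 cells/well, treated with compound, then triggered with supernatant of TNF-α-treated THP-1 cells, diluted in M199 with low FBS. MMP1 in supernatant quantified by sandwich ELISA with biotinylated anti-MMP1 and streptavidin-HRP chemiluminescent detection.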

CC(C)N1C[C@@H]2C[C@H]1CN2c1cccc(Nc2ncc(-c3ccc4c(c3)CNC4=O)n3ncnc23)c1 [Compound 26, 5-(8-(3-((1S,4S)-5-isopropyl-2,5-diazabicyclo[2.2.1]heptan-2-yl)phenylamino)-[1,2,4]triazolo[1,5-a]pyrazin-5-yl)isoindolin-1-one]
IC50: > 1000 nM
